Source: patent US6696495B2, “Treatment of disorders secondary to organic impairments” (Snowden Pharmaceuticals, LLC, priority 1998, dated 2004)
Read-outs that look alike come from different tables or passages of the source.

Key:
Format in all cases: in vivo, human
Heroin Craving and Abuse = system: Heroin Craving and Abuse
Description: 21. Relief of Heroin Craving and Abuse (Problem No. 12) Sibutramine Patient No. 165
A single person was introduced to heroin by snorting when they were particularly stressed with the anger and pain of losing a boyfriend. They had always had difficulty recovering from pain, anger and loss but the heroin rapidly made them feel “normal”. They quickly moved to the intravenous route and reached a maximum intake of 5 bags per day (approximately $100/day in cost) for the next 6 months when they were discovered to have charged large amounts on their charge cards. They were then hospitalized in a drug detoxification hospital for three weeks but soon relapsed after discharge. After their second round of treatment they were referred to the care of a psychiatrist (the inventor herein). The patient described constant, unrelenting cravings for heroin and expressed that it would be “next to impossible” to remain free of the drug for any length of time. […] Out of desperation, the dose was increased to 15 mg in the AM and within an hour they noted a marked change. […] They now felt the “normal” feeling that heroin had given them and no longer noted any anger, hurt or distress.
They gained 15 pounds the first 2 weeks on the 15 mg of sibutramine in the morning. This was partially relieved by adding a 5 mg dose of sibutramine in the afternoon. This effect on the heroin craving and hurt is therefore clearly separate from the FDA-approved anorexic effect of sibutramine. […] They are now working at two jobs to pay their back debts.

[1] = system: Sexual Gender Choice Change; test: Case history 7, Sibutramine Patient No. 99; conditions: sibutramine 10 mg every morning; person
[2] = system: Asocial Behavior, Violence, and Hyposexuality; test: Case history 10, Sibutramine Patient No. 54
Huntington's Disease = test: Case history 12, Sibutramine Patient No. 113
[3] = system: Sick Building Syndrome (SBS); test: Case history 20; conditions: sibutramine 5 mg. t.i.d. Person
Description: 20. Sick Building Syndrome (SBS)
This person began to note an increasing fatigue, poor concentration, rash, and wheezing which they related to exposure to unknown foreigns in the large building in which they worked. They also noted that more than 40 other employees had similar symptoms. […] They were then forced to leave their job in this building with a gradual relief of all symptoms over the next several weeks.

[4] = Overall clinical observations in the patients treated with sibutramine
Description: The term sibutramine as used herein means compounds of sibutramine hydrochloride monohydrate, more specifically N,N-dimethyl-1-[1-(4-chlorophenyl)cyclobutyl]-3-methylbutylamine hydrochloride preferably in its monohydrate form, and enantiomers and analogues thereof, as described in U.S. Pat. Nos. 4,746,680, 4,929,629 and 5,436,272. Sibutramine is believed to inhibit reuptake of norepinephrine, serotonin and dopamine thereby intensifying their effects in the brain. Sibutramine is commercially available as MERIDIA®, Knoll Pharmaceutical Company, Mount Olive, N.J. Capsules are presently available with discrete dosages of 5, 10 and 15 mg for oral administration. The sibutramine is administered in a pharmaceutically active dose. The preferred dosage is about 5 mg three times a day but there is variation between patients for the best dose. It is believed that the cytochrome P450 system differs in individuals and the dose must be determined empirically in each patient. The effect of the cytochrome P450 system on metabolism of psychotropic drugs is discussed in “Intercom: The Experts Converse”, published by The Journal of Clinical Psychiatry, November 1995. […] It is possible that higher or lower doses can be used depending upon each individual. Therefore, more flexibility in available dosage is needed. Furthermore, means of administration such as injection, rectal suppository, or transdermal patches may be utilized. Finally, a long-acting slow-release means such as oral tablet or capsule would be the preferred route in view of the rapid metabolism noted (5 hour duration of action usually) in most of the patients.
Although the use of sibutramine has been described for the treatment of conditions such as obesity, depression, diabetic hyperglycemia, hyperlipidemia, senile dementia and related conditions, and Parkinson's disease, it has been discovered that sibutramine can be successfully used in treating other problems unrelated to these conditions. […] For example, patients with ADD previously treated with stimulants found it easier to eat when treated with sibutramine and gained weight. […] It was generally necessary to continue anti-depressant therapy along with the sibutramine therapy.
Above and beyond the known effects of sibutramine on serotonin, dopamine and norepinephrine activation, there is believed to be an effect of this medication on the endorphic opiate neurotransmitter system which is evident in the patients who have been relieved of pain, rage, anger, self-mutilation and particularly addiction to heroin. […] It would appear that sibutramine activates endorphins or, at the very least, modifies the endorphinergic opioid systems to promote serenity and lack of pain and stress, and to reduce craving for heroin. Such a mechanism which was previously unsuspected may have also contributed to the therapeutic effects of sibutramine herein described for PTSD, asocial behavior and fibromyalgic pain which have not been helped by serotonin, dopamine and norepinephrine potentiators. This is in contradistinction to the therapeutic effects of sibutramine on ADHD, chronic fatigue, and the symptoms of Tourette's and non-Tourette's diseases. Finally, a differentiation between the serotonin, dopamine and norepinephrine potentiation versus the opiate-like therapeutic effects of sibutramine may be made in terms of duration of action, whereas the serotonin, dopamine, norepinephrine agonist effects lasted in most patients for only 4-6 hours (therefore requiring tid dosage), the opiate effects appear to last all day and require only a single AM dosage.
These benefits were lost rapidly when either the patient was taken off sibutramine or when steroids, such as cortisone were concomitantly administered.

[5] = system: ADHD Refractory to Other Treatments; conditions: sibutramine 10 mg every morning by mouth; person
Protocol: 16. ADHD Refractory to Other Treatments (Problem No. 6) Sibutramine Patient No. 16
The amphetamines made their nervous, jittery, and unable to sleep. […] They were started on sibutramine 10 mg every morning by mouth. […] After the first month, their dose was changed to 5 mg three times daily due to a five hour duration of effects.

[6] = system: Torticollis, Lingual Dystonia and Dyskinesia; test: Case history 23

CC(C)CC(N(C)C)C1(c2ccc(Cl)cc2)CCC1.Cl (stereo not shown) [sibutramine, N,N-dimethyl-1-[1-(4-chlorophenyl)cyclobutyl]-3-methylbutylamine hydrochloride]
“nodding out” side effects (Heroin Craving and Abuse; compared with heroin): none of the negative “nodding out” side effects | weight gain (Heroin Craving and Abuse; first 2 weeks on 15 mg in the morning): 15 pounds | anger, hurt and narcotic craving (Heroin Craving and Abuse; sibutramine 5 mg tid po, person): no relief from their anger and hurt nor from their narcotic craving | anger, hurt and narcotic craving (Heroin Craving and Abuse; sibutramine 15 mg in the AM): a complete relief | duration of effect (Heroin Craving and Abuse; sibutramine 15 mg in the AM): extended for the whole day | time to marked change (Heroin Craving and Abuse; sibutramine 15 mg in the AM): an hour | side effects (Heroin Craving and Abuse; sibutramine 15 mg in the morning): a dry mouth and a craving for food | sexual interest [1]: an increased interest in sex generally, but for the first time this interest included females as well as males | speech, compulsive acts, social activity, sexual interest ([2]; sibutramine 5 mg tid): a decrease in repetitive speech, hissing, and compulsive acts, an increase in social activity and sexual interest, and increased speech generally | violence / manageability ([2]; sibutramine 10 mg daily, person): again became calm and manageable | ataxic gait with continued treatment (Huntington's Disease; gradually, continued sibutramine): improvements in their ataxic gait | time to relief after the first capsule (Huntington's Disease; sibutramine 5 mg): ≤ 20 min | cognitive, emotional, behavioral problems and ataxic gait (Huntington's Disease; sibutramine 5 mg three times a day, first capsule, person): complete relief of the cognitive, emotional, and behavioral problems but not with the ataxic gait | cognitive, fatigue and allergic symptoms [3]: rapid relief of the cognitive and fatigue symptoms, but no relief from the allergic symptomatology | highest dose ([4]; 15 mg 3 times daily): 45 mg | neurogenesis ([4]; believed, evidenced by increase in the hippocampus, enhanced mental and motor skills): induced neurogenesis | lowest effective dose ([4]; human, in vivo): 0.25 mg daily | onset of improvement ([4]; human, in vivo): alleviated within minutes or hours of treatment | duration of serotonin, dopamine, norepinephrine agonist effects ([4]; most patients): 4 to 6 h | depression ([4]; patients removed from anti-depressant medication): became depressed when removed from the anti-depressant medication and treated with sibutramine alone | symptoms of Post Traumatic Stress ([4]; patients with Post Traumatic Stress): relieved the symptoms of Post Traumatic Stress | duration of opiate effects ([4]; single AM dosage): last all day | duration of action ([4]; usually, in most of the patients): 5 h | effect on ADHD [5]: a calming and an alerting effect | symptoms with continued dosing ([6]; 15 mg sibutramine every six hours): prolonged and sustained relief of their symptoms | pain ([6]; sibutramine 15): their pain subsided | tremors, mouth opening, arm movement ([6]; sibutramine 15): their tremors considerably slowed, their mouth was no. longer pulling open as dramatically and their arm was not moving noticeably | time to response ([6]; sibutramine 15, person): ≤ 45 min
